These results are taken from patent EP3263567A1, “CARBOXAMIDE-SUBSTITUTED PYRAZOLES AND TRI(HETERO)ARYL-PYRAZOLES FOR USE IN METHODS OF TREATING AND / OR PREVENTING CARDIOVASCULAR DISEASES AND / OR COMORBIDITIES THEREOF” (AiCuris Anti-infective Cures GmbH, priority 2016, dated 2018).

One data set addresses T1, Cav1.2 (Homo sapiens, UniProt Q13936).
T1 construct: expressed in transfected cells; host or cells: CHO (ATCC CCL-61), stably transfected; selection with Hygromycin, Geneticin and Zeocin
Kind of data set: Whole-cell patch-clamp, Cav1.2 currents in stably transfected CHO cells. In kind it is cell-based. The following applies: summary statement. As to the method: [drawing 92] i.e. 4-[5-[3-Chloro-5-(trifluoromethoxy) phenyl]-1-(pyridin-3-yl)-1H-pyrazol-3-yl]-5,6-dihydro-7H-pyrrolo[3,4-d]pyrimidin-7-one, was tested for its effects on human Nav1.5, Cav1.2, Kv1.5, and HCN4 currents recorded from stably transfected CHO cells. The effect of four concentrations of this compound on these currents was investigated.
The whole-cell patch-clamp technique was used to investigate the effect of Compound A on the currents of Nav1.5, Kv1.5, Cav1.2 and HCN4 channels, expressed in CHO cells (ATCC, CCL-61). Compound A was tested at concentrations of 200 nM, 600 nM, 2000 nM and 6000 nM. […]
The 35 mm culture dishes upon which cells were seeded at a density allowing single cells to be recorded were placed on the dish holder of the microscope and continuously perfused (at approximately 1 mL/min) with the bath solution described in section 4.7. […]
As soon as a stable seal could be established outward tail currents were measured upon pulses described in the Table below: […]
Values in Ampere (A) of the peak amplitudes of outward tail currents were generated for each voltage step. […] The recorded current amplitudes at the steady state level of current inhibition were compared to those from control conditions measured in the pre-treatment phase of the same cell. The amount of current block was calculated as percentage of control. […]
(In general: In patch-clamp work, channel activity is measured electrically.)

A further data set relates to Beagle dogs. Description: 4-week beagle dog experiment, non-invasive telemetry (ECG, heart rate, blood pressure). It counts as in vivo. The procedure: [drawing 93] i.e. 4-[5-[3-Chloro-5-(trifluoromethoxy)phenyl]-1-(pyridin-3-yl)-1H-pyrazol-3-yl]-5,6-dihydro-7H-pyrrolo[3,4-d]pyrimidin-7-one, was administered in a 4-week beagle dog experiment with integrated non-invasive telemetric electrocardiography (ECG) measurements for determining its cardiovascular effects; specifically its effects on the heart rate.
32 Beagle dogs (16 males and 16 females) with parameters in the normal range were tested for cardiovascular effects of Compound A administration and divided into the study groups indicated below.
The test compound A-formulation of the appropriate concentration was administered by oral administration at a constant administration volume/kg b.w.
• Groups 1 and 4: Twice daily at an 8-hour interval for 28 consecutive days. • Groups 2 to 3: Once daily for 28 consecutive days.
Telemetry parameters were monitored at the following times: • Predose and in test week 4: All 32 animals included in this study. • At the end of the recovery period in test week 8: All 8 recovery animals.
Parameters were monitored telemetrically with the EMKA Technologies System continuously starting approximately 24 hours prior to the first treatment (baseline; pre-dose values) and for approximately 24 hours in test week 4 and at the end of the recovery period in test week 8. The dogs were habituated and trained for wearing the jackets equipped with the telemetry transmitter and air-filled cuff placed on their tail.
The following telemetry parameters were determined: • Peripheral arterial blood pressure in the tail (blood flow occlusion using an air filled cuff) • Heart rate • Electrocardiography (QRS, QT, PQ, RR) • Respiration (respiratory inductive plethysmography; belts were placed around the thorax and abdomen) • Skin temperature • Physical activity.
The report includes the data recorded at the following intervals: • Pre-dose: Every 4 hours after start of recording (7 (Baseline; approx. 24 hours) tracings per animal) • Test week 4: Approx. 0, 1, 2, 6, and 24 hours after (Start of treatment to 24 hours post the 1 st administration of the day treatment relating to first dosing of the day) • At the end of the recovery period in Every 4 hours after start of recording (7 test week 8: tracings per animal)
The electrocardiogram was visually assessed for any abnormalities of the electrical complexes (i.e. arrhythmias, interval prolongations). In addition, the following parameters were evaluated:
Furthermore, the QTc-values were calculated according to the following Bazett-formula: QTc = (QT [sec])/(sqrt((R−R distance[sec]))) [formula]

Where [1] appears, read: 3, 10 or 2 x 50 mg/kg b.w./day oral, test week 4.

“Also recorded” adds a separate entry of the source.

T1 sequence (Q13936 whole entry): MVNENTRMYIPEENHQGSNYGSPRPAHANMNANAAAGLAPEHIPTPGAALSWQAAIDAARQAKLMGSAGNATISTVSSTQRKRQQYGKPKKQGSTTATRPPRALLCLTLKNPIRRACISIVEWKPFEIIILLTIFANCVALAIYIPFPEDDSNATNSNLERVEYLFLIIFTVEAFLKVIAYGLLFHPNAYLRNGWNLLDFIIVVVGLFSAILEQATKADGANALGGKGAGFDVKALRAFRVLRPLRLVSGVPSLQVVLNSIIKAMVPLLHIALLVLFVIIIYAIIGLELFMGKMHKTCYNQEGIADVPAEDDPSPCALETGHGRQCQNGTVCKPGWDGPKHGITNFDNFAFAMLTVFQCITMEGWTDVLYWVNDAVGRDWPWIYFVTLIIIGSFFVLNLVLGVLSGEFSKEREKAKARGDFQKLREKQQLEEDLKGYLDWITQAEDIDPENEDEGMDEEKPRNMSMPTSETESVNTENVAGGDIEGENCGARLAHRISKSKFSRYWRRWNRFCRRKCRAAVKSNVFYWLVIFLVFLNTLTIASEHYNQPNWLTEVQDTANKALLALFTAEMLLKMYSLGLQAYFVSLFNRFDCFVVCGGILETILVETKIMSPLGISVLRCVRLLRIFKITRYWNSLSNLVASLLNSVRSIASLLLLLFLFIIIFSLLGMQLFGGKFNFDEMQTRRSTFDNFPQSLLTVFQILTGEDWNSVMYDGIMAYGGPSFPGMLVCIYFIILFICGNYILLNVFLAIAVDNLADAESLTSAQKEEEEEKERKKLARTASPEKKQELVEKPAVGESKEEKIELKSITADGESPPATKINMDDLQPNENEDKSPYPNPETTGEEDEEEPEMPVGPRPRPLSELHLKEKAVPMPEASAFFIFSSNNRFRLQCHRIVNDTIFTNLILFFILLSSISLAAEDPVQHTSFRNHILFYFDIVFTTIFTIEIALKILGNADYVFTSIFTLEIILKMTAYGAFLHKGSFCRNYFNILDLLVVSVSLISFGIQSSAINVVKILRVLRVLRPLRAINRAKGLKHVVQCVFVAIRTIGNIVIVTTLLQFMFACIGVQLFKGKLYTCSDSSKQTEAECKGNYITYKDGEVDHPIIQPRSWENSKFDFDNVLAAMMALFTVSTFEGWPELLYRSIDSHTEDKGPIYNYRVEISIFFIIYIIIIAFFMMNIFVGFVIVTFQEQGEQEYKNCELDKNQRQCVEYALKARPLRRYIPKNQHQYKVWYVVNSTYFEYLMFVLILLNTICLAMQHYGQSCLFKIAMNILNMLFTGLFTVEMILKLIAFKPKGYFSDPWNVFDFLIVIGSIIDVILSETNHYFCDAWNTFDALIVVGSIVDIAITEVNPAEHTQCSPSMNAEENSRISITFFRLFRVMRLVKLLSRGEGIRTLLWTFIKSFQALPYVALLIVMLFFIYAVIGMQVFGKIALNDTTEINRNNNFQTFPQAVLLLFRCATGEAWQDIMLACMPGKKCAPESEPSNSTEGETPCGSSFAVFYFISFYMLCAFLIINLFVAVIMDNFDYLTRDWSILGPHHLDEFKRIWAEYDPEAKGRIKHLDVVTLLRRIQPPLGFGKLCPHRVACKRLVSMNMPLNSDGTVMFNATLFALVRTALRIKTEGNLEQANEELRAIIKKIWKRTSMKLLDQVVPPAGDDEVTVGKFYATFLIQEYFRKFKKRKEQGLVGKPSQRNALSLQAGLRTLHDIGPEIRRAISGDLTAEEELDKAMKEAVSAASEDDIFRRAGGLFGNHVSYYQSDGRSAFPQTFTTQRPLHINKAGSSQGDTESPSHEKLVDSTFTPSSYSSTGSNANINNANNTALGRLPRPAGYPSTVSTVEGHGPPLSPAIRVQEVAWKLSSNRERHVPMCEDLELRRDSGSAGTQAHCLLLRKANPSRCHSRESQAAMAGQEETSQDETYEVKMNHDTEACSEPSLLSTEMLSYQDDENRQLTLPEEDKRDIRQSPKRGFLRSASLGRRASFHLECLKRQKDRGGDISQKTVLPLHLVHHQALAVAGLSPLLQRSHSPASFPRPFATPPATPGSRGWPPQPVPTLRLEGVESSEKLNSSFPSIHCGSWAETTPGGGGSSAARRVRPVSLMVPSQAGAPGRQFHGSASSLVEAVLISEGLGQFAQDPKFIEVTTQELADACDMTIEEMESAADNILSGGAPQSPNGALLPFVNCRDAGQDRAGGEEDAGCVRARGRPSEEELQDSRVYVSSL
T1 sequence (Q08289 whole entry partner): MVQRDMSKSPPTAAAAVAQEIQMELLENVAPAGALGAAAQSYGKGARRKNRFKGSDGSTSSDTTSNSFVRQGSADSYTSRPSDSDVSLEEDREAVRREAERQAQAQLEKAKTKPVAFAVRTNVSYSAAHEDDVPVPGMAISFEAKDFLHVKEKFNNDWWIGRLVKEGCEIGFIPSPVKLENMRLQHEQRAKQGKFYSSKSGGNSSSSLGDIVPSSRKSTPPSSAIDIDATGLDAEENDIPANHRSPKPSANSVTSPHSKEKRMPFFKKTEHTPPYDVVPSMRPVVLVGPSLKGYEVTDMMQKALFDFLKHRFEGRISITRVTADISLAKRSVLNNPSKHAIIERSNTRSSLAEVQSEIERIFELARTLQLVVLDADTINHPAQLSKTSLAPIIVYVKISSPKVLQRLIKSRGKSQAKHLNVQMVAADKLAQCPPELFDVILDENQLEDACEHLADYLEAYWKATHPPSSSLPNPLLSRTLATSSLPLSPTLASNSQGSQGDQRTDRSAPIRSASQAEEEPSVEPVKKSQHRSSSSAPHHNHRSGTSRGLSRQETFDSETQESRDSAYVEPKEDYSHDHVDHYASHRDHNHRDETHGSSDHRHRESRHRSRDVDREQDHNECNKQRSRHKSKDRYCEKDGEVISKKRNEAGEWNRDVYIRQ
T1 sequence (P54289 25-956 partner limits assumed): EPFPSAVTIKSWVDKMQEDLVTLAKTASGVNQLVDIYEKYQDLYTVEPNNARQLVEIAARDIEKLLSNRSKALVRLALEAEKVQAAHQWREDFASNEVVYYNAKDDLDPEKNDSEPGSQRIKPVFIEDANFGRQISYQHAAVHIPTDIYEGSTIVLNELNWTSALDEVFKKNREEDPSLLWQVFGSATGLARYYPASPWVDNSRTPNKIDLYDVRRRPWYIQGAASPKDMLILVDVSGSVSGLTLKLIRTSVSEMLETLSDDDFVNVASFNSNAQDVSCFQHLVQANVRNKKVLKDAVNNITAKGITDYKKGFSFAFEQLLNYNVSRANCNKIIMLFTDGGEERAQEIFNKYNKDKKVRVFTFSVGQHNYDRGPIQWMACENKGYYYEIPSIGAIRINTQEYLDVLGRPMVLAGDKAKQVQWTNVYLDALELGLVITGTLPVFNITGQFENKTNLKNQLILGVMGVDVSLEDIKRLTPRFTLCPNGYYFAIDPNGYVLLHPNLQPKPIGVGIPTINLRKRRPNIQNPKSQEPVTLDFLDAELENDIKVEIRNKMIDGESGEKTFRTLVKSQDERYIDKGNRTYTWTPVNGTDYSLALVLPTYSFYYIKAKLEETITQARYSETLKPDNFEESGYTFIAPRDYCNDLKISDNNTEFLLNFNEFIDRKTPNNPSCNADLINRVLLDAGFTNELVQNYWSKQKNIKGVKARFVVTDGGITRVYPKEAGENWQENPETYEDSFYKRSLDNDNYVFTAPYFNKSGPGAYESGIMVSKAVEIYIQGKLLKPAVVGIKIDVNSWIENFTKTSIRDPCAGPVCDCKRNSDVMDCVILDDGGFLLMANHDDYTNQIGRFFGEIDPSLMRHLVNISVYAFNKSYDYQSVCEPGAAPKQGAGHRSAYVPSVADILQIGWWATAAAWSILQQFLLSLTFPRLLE
T1 sequence (P54289 957-1103 partner limits assumed): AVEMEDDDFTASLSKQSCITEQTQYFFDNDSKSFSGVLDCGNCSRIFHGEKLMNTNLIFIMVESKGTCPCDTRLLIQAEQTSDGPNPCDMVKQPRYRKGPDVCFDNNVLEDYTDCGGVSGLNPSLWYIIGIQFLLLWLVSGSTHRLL

Take `O=C1NCc2c1ncnc2-c1cc(-c2cc(Cl)cc(OC(F)(F)F)c2)n(-c2cccnc2)n1` [Compound A, 4-[5-[3-Chloro-5-(trifluoromethoxy)phenyl]-1-(pyridin-3-yl)-1H-pyrazol-3-yl]-5,6-dihydro-7H-pyrrolo[3,4-d]pyrimidin-7-one]: the “interaction with ion channels of Cav” value on Cav1.2 is “do not interact with other ion channels of Nav, Kav, and Cav substantially”. Also, in the data set on Beagle dogs (1st evaluated telemetric time-point, test week 4), the “start of telemetric changes after last administration” value is no more than 5 min. The “effect on QTc interval” value in the data set with Beagle dogs (3, 10 or 2 x 50 mg/kg b.w./day oral, 4 weeks) is reported as “no adverse effects on QTc-interval; also recorded: no effect on QTc; also recorded: No influence”. In the data set with Beagle dogs (setting [1]), the “prolonged QT interval” value is on record as no more than 50% and the “prolonged RR interval” value was no more than 140%. In the data set on Beagle dogs (3, 10 or 2 x 50 mg/kg b.w./day oral, test week 4, compared to control group), the decreased heart rate is on record as no more than 50%. For the same molecule, the “severe bradycardia or atrial fibrillation” value with Beagle dogs (beagle dog study) was “no signs of too much slowing of the heart rate (severe bradycardia) nor atrial fibrillation”. Further, the “telemetric changes lasting until, after administration” value with Beagle dogs (end of telemetric measurement, test week 4) came to 24 h. In addition, the “influence on systolic and diastolic blood pressures” value in the data set with Beagle dogs (oral, 4 weeks) is listed as “No influence”. Besides, the “recovery of telemetric changes after 4-week treatment-free recovery period” value in the data set with Beagle dogs (week 8, high dose group 2 x 50 mg/kg b.w./day) is given as “full recovery; also recorded: completely subsided”.
